Laboratory results taken from article PMC6165478, “Wine and Olive Oil Phenolic Compounds Interaction in Humans” (Diseases, 2018).
Where “and” joins values, the source holds several entries; their conditions need not be identical. Equal entries are not always repeated. Marks after values point to notes of the source that are not given here.

Key:
[1] = Urinary recovery of RESV, its isomers and dihydro-RESV (GC-MS after enzymatic hydrolysis), crossover clinical trial; conditions: for RESV urinary recovery from 0 to 6 h: urine 0-6 h, n = 12, mean ± SD
Procedure: The study consisted of a crossover randomized clinical trial with three different interventions. The interventions consisted of a single administration of 25 mL of EVOO, 150 mL of RW, or the combination of both 25 mL of EVOO and 150 mL of RW. Treatment quantities were equivalent to normal dietary doses of a typical MD. A total of twelve healthy subjects (50% women, 34.0 ± 10.5, BMI = 22.0 ± 3.3 kg/m^2) participated in the study. The study was explained to participants through verbal and written instructions, and written informed consent was obtained before participation. Volunteers received each treatment in a randomized manner. The study included three experimental sessions in which each intervention was administered under fasting conditions. Each experimental session was preceded by a two-day washout period. The total duration of the study was nine days.
On the day of the intervention, subjects consumed one of the three interventions within a period of 5–10 min. Urine was collected in separate fractions, at baseline (−2–0 h), to assess dietary compliance and during 6 h after each dietary intervention (0–6 h). The amount of urine in each fraction was measured, acidified with 6 M HCl, and stored at −20 °C until analysis. The study protocol was approved by the Ethics Committee of Parc de Salut Mar (CEIC-PSMAR) (Spain), and the clinical trial was registered at the International Standard Randomized Controlled Trial Number (NCT03614520).
Urine was subjected to a hydrolysis procedure previously described by our working group. Aliquots of 1 mL of diluted urine (1:10 in water) were spiked with 10 µL of IS (containing 10 µg/mL of diethylstilbestrol), 100 µL of sodium metabisulfite, 1 mL acetate buffer 0.1 M pH 5.2, and 25 µL of β-glucuronidase. The samples were incubated at 37 °C overnight. After incubation, 1 mL of NaOH was added to neutralize the hydrolysis process. For the extraction of the phenolic compounds, 0.5 mL of a saturated solution of NaCl and 4 mL of acetonitrile-ethyl acetate mixture (1:4 v/v) were added. Samples were mixed for 30 min, centrifuged for 5 min at 300 g, and the organic phase was extracted and evaporated until dry. After 1 h in an oven at 50 °C, the residue was derivatized with 75 µL of MSTFA: NH4I:2-mercaptoethanol reaction mixture for 30 min at 60 °C and 2 µL was injected into the gas chromatograph.
For the preparation of the calibration curves, 1 mL of diluted urine (1:10 in water) was spiked with an increasing concentration of c- and t-RESV and dihydro-RESV (10–200 ng/mL), and subjected to the extraction procedure exactly in the same way as the samples.
The extracted samples were analyzed using an Agilent Technologies (Santa Clara, CA, USA) 6890 N gas chromatograph coupled to a 5973 mass-selective detector. For chromatographic separation, a 5% phenyl-dimethyl-polysiloxane Zebron™ (Torrance, CA, USA) fused-silica capillary column (15 m × 0.25 mm i.d., 0.25 µm film thickness) was used. The split injection mode using helium as a carrier gas (0.9 mL/min) was applied. The temperatures of the injector and transfer line were set at 280 °C. Gas chromatographic conditions were as follows: initial oven temperature at 80 °C, raised by 20 °C/min to 200 °C, then by 10 °C/min to 300 °C, and maintained at 300 °C for 3 min. […] Ions at m/z 444 (RESV and piceid), m/z 179 (dihydro-RESV), and m/z 412 (diethylstilbestrol), were selected for the quantitative analysis.

[2] = Ethyl glucuronide quantification in urine (LC-MS/MS); type: in vivo, humans
Procedure: (§1) Volunteers received each treatment in a randomized manner. […] The total duration of the study was nine days.
Ethyl glucuronide concentration in urine was used as a marker of alcohol abstinence and compliance with the dietary recommendations before each intervention. To determine urinary concentrations of ethyl glucuronide, aliquots of 30 μL were mixed with 10 μL of IS mix solution (containing 10 μg/mL ethyl-glucuronide-d5 and ethyl-sulfate-d5) and 110 μL of 0.1% formic acid solution in water. The identification and the quantification of ethyl glucuronide were carried out using an Agilent 1200 series HPLC system (Agilent technologies) (Santa Clara, California, CA, USA) coupled to a triple quadrupole (6410 Triple Quad LC/MS; Agilent) mass spectrometer with an electrospray interface. To perform the chromatographic separation, an Acquity UPLC® BEH C18 column with a 1.7 μm particle size, 3 mm × 100 mm (Waters, Milford, MA, USA) was used. The composition of mobile phase A was 0.1% (v/v) formic acid in water, and mobile phase B was 0.1% (v/v) formic acid in acetonitrile.

[3] = Urinary recovery of HT, TYR and their metabolites (LC-MS/MS), crossover clinical trial; type: in vivo; conditions: urine 0-6 h, n = 12, mean ± SD
Procedure: as §1
The quantification of urinary levels of HT and TYR free forms and their metabolites was performed using a solid-phase extraction and following the method previously described. The method was capable of detecting the free forms HT, TYR, and HVALc; the sulfate conjugates HT-sulfate, TYR-sulfate, and HT-acetate-sulfate; and the glucuronide conjugates HT-glucuronide, TYR-glucuronide, and HVALc-glucuronide. Shortly thereafter, aliquots of 0.5 mL of the samples were diluted with 0.5 mL of purified water and spiked with 10 µL of internal standard (containing 10 µg/mL of HT-D3, 3-(4-hydroxyphenyl)-1-propanol, 4-(3-hydroxypropylphenyl) glucuronide and HT-1-sulfate) and stabilized with 1 mL of phosphoric acid 4%. Thereafter, samples were submitted to a solid-phase extraction by means of Oasis HLB columns. Samples were loaded into the cartridges, and the cartridges were then washed with 2 mL of purified water. Finally, the compounds of interest were eluted by adding 2 mL of methanol to the cartridges. Subsequently, the methanol was evaporated until dry using nitrogen (29 °C, 10–15 psi). Finally, the dried extracts were reconstituted in 100 µL of a mixture of mobile phases (91% A/9% B v/v), transferred into HPLC vials, and analyzed by LC-MS/MS.
Identification and quantification of HT and TYR metabolites was performed using an Agilent 1200 series HPLC system (Agilent technologies, Santa Clara, California, CA, USA) coupled to a triple quadrupole (6410 Triple Quad LC/MS; Agilent) mass spectrometer with an electrospray interface. The chromatographic separation was carried out with an Acquity UPLC® BEH C18 column with a 1.7 μm particle size, 3 mm × 100 mm (Waters, Milford, MA, USA) maintained at 40 °C. The composition of mobile phase A was 0.01% of ammonium acetate (pH 5) in water; mobile phase B was pure methanol. The injection volume was 10 μL and the ion source operated in negative ionization mode.

[4] = baseline urine (-2 to 0 h), after washout diet

Oc1ccc(CCc2cc(O)cc(O)c2)cc1 [Dihydro-RESV, Dihydroresveratrol]
RESV urinary recovery from 0 to 6 h ([1]; after 25 mL EVOO + 150 mL RW): 13.0 ± 8.3 ^aa nmol
RESV urinary recovery from 0 to 6 h ([1]; after 25 mL EVOO + 150 mL RW, listed as dihydro-RESV): 13.0 ± 8.3 nmol
RESV urinary recovery from 0 to 6 h ([1]; after single dose 25 mL EVOO): 0.0 ± 0.0 nmol
RESV urinary recovery from 0 to 6 h ([1]; after single dose 150 mL RW): 10.9 ± 7.5 ^aa nmol
RESV urinary recovery from 0 to 6 h ([1]; after single dose 150 mL RW, listed as dihydro-RESV): 10.9 ± 7.5 nmol

CCO[C@@H]1O[C@H](C(=O)O)[C@@H](O)[C@H](O)[C@H]1O [Ethyl glucuronide]
Ethyl glucuronide recovery in urine ([2]; after EVOO (25 mL)): undetectable
Ethyl glucuronide recovery in urine ([2]; after RW + EVOO intervention): 19.3 ± 7.6 µmols
Ethyl glucuronide recovery in urine ([2]; after RW intervention (150 mL)): 19.0 ± 9.5 µmols
Ethyl glucuronide in urine at baseline [2, 4]: undetectable

COc1cc(CCO)ccc1O [Free HVALc, homovanillyl alcohol]
Urinary recovery from 0 to 6 h (single free form or metabolite) ([3]; after 25 mL EVOO + 150 mL RW): 247 ± 205 ^bb nmol
Urinary recovery from 0 to 6 h (single free form or metabolite) ([3]; after single dose 25 mL EVOO): 269 ± 145 nmol
Urinary recovery from 0 to 6 h (single free form or metabolite) ([3]; after single dose 150 mL RW): 110 ± 118 ^aa nmol

OCCc1ccc(O)c(O)c1 [HT, 3,4-dihydroxyphenylethanol]
Total urinary recovery from 0 to 6 h (sum of free form and metabolites) ([3]; after 25 mL EVOO + 150 mL RW): 6286 ± 3198 nmol
Urinary recovery from 0 to 6 h (single free form or metabolite) ([3]; after 25 mL EVOO + 150 mL RW): 386 ± 289 ^bb nmol
Total urinary recovery from 0 to 6 h (sum of free form and metabolites) ([3]; after 25 mL EVOO + 150 mL RW, listed as Total HT): 6286 ± 3198 ^aa bb nmol
Total urinary recovery from 0 to 6 h (sum of free form and metabolites) ([3]; after single dose 25 mL EVOO): 3788 ± 1751 nmol
Urinary recovery from 0 to 6 h (single free form or metabolite) ([3]; after single dose 25 mL EVOO): 367 ± 221 nmol
Total urinary recovery from 0 to 6 h (sum of free form and metabolites) ([3]; after single dose 150 mL RW): 2308 ± 847 nmol
Urinary recovery from 0 to 6 h (single free form or metabolite) ([3]; after single dose 150 mL RW): 201 ± 173 ^aa nmol
Total urinary recovery from 0 to 6 h (sum of free form and metabolites) ([3]; after single dose 150 mL RW, listed as Total HT): 2308 ± 847 ^a nmol

Oc1ccc(C=Cc2cc(O)cc(O)c2)cc1 [RESV, 3,4′,5-Trihydroxystilbene]
RESV in baseline urine samples [1, 4]: no RESV was observed

OCCc1ccc(O)cc1 [TYR, tyrosol]
Total urinary recovery from 0 to 6 h (sum of free form and metabolites) ([3]; after 25 mL EVOO + 150 mL RW): 4925 ± 1751 nmol
Urinary recovery from 0 to 6 h (single free form or metabolite) ([3]; after 25 mL EVOO + 150 mL RW): 460 ± 490 ^b nmol
Total urinary recovery from 0 to 6 h (sum of free form and metabolites) ([3]; after 25 mL EVOO + 150 mL RW, listed as Total TYR): 4925 ± 3993 ^aa b nmol
Total urinary recovery from 0 to 6 h (sum of free form and metabolites) ([3]; after single dose 25 mL EVOO): 2180 ± 1917 nmol
Urinary recovery from 0 to 6 h (single free form or metabolite) ([3]; after single dose 25 mL EVOO): 404 ± 346 nmol
Total urinary recovery from 0 to 6 h (sum of free form and metabolites) ([3]; after single dose 150 mL RW): 2567 ± 1468 nmol
Urinary recovery from 0 to 6 h (single free form or metabolite) ([3]; after single dose 150 mL RW): 132 ± 114 ^aa nmol

Oc1ccc(C=Cc2cc(O)cc(O)c2)cc1 [c-RESV, 3,4′,5-Trihydroxystilbene]
RESV urinary recovery from 0 to 6 h ([1]; after 25 mL EVOO + 150 mL RW): 83.8 ± 62.6 ^aa nmol
RESV urinary recovery from 0 to 6 h ([1]; after single dose 25 mL EVOO): 0.0 ± 0.0 nmol
RESV urinary recovery from 0 to 6 h ([1]; after single dose 150 mL RW): 72.8 ± 44.3 ^aa nmol

Oc1ccc(C=Cc2cc(O)cc(O)c2)cc1 [t-RESV, 3,4′,5-Trihydroxystilbene]
RESV urinary recovery from 0 to 6 h ([1]; after 25 mL EVOO + 150 mL RW): 61.7 ± 42.4 nmol and 61.7 ± 42.4 ^aa nmol
RESV urinary recovery from 0 to 6 h ([1]; after single dose 25 mL EVOO): 0.0 ± 0.0 nmol
RESV urinary recovery from 0 to 6 h ([1]; after single dose 150 mL RW): 59.2 ± 28.7 nmol and 59.2 ± 28.7 ^aa nmol
